Test results reported in PubChem BioAssay (NCI).
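Dose response: 5 concentrations. Exposure: 48 h. Format: 96-well plates. Endpoint: linear interpolation; highest concentration if not reached. TGI: total growth inhibition.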

How the values were obtained:
Experiment in all cases: NCI-60 cell line screen, 48 h
[1] = tested on: HOP-62 NSCLC
[2] = tested on: LOX IMVI melanoma
[3] = tested on: 786-0 renal
[4] = tested on: DMS 114 small cell lung
[5] = tested on: LXFL 529 NSCLC
[6] = tested on: HOP-18 NSCLC
[7] = tested on: M19-MEL melanoma
[8] = tested on: DMS 273 small cell lung
[9] = tested on: SNB-78 CNS
[10] = tested on: KM20L2 colon
[11] = tested on: DLD-1 colon
[12] = tested on: XF 498 CNS

Row | Compound | TGI [1] [µM] | TGI [2] [µM] | TGI [3] [µM] | further results
1 | O=C(/C=C/c1ccc(OCc2ccccc2)cc1)NCc1ccc(C(=O)NCCc2c[nH]c3ccccc23)cc1 | 15.6 | > 100 | 16.7 | –
2 | COC1=N[C@H](C(C)C)C(OC)=N[C@H]1Cc1ccc(C[C@@H]2N=C(OC)[C@@H](C(C)C)N=C2OC)s1 | > 100 | > 100 | > 100 | –
3 | Cc1c(O)c(OC2OC(CO)C(O)C(O)C2O)cc2c1CC[C@@H]1C2(C)C(=O)C[C@]2(C)[C@@H]([C@@](C)(O)C3CCC(C)(C)O3)[C@H](O)C[C@@]12C (stereo not given in full) | > 100 | > 100 | > 100 | –
4 | O=C(O)c1nc2ccc(Cl)cc2[nH]c1=O | > 100 | > 100 | > 100 | –
5 | O=[N+]([O-])C1=Cc2cc(Cl)ccc2OC1c1cccc2ccccc12 (stereo not given) | 2.55 | 0.983 | 1.37 | –
6 | CCOC(=O)/C(=C\NC(C)(C)C)c1nc2ccccc2[nH]1 | 58.5 | 44.6 | 72 | –
7 | CCOC(=O)c1nc2ccccc2nc1NCc1ccc(OC)c(OC)c1 | > 100 | > 100 | > 100 | –
8 | C=C1[C@H]2O[C@H]2[C@@H](OC(C)=O)[C@@]2(C)[C@@H](OC(C)=O)C[C@@H](OC(=O)CCC)[C@@](C)(O)[C@@H]2[C@@H](OC(C)=O)[C@]2(O)[C@@H](C)C(=O)O[C@H]2[C@H]1Cl | > 100 | – | > 100 | –
9 | COC(=O)CCC1=NCC(C)(C)O1 | > 10 | > 10 | > 10 | –
10 | C[C@@H]1[C@H](O)CC2=C(CC[C@@H](O)C2(C)C)[C@@]1(CO)CCc1ccoc1 | > 50 | > 50 | > 50 | –
11 | Cn1nc2ccc([N+](=O)[O-])cc2[n+]1[O-] | > 100 | – | > 100 | –
12 | N#Cc1c(C#N)c(-c2ccccc2)n(Cc2ccccc2)c1N | > 100 | > 100 | > 100 | –
13 | [N-]=[N+]=NC1(c2ccccc2)C(=O)C(Cl)=C(c2ccccc2)N(c2ccccc2)C1=O (stereo not given) | > 100 | > 100 | > 100 | TGI [4]: > 100 µM; TGI [5]: > 100 µM; TGI [6]: > 100 µM; TGI [7]: > 100 µM; TGI [8]: > 100 µM; TGI [9]: > 100 µM; TGI [10]: > 100 µM; TGI [11]: > 100 µM
14 | Cc1ccc(S(=O)(=O)NC(=O)Nc2cccc(S(N)(=O)=O)c2)cc1 | > 100 | > 100 | > 100 | –
15 | C[C@@H](CC(=O)O)OC1OC(COC(=O)C(C)(C)C)C(OC(=O)C(C)(C)C)C(OC(=O)C(C)(C)C)C1OC(=O)C(C)(C)C (stereo not given in full) | > 100 | > 100 | > 100 | –
16 | CC1=NN(c2nc(N)nc(CSc3cc(Cl)c(C)cc3S(N)(=O)=O)n2)C(C)(C)C1 | > 10 | > 10 | > 10 | –
17 | COC(=O)C1CCC(=O)N1CN(C(C)=O)c1cc(OC)ccc1OC (stereo not given) | > 100 | > 100 | > 100 | –

Row | Compound | TGI [1] [µM] | TGI [2] [µM] | TGI [3] [µM] | further results
18 | CC(=O)Nc1ccc2c3c(cc(O)c2c1)N(C(=O)CCCCC(=O)N1CC(CCl)c2c1cc(O)c1cc(NC(C)=O)ccc21)CC3CCl (stereo not given) | 8.78 | > 100 | 0.992 | –
19 | O=C1C2=Cc3ccccc3OC2(O)Oc2ccccc21 (stereo not given) | > 100 | > 100 | > 100 | –
20 | CCC(=O)NI1OC(=O)c2ccccc21 | > 100 | > 100 | > 100 | –
21 | COc1ccc2c(c1)c1c(n2CCN2CCOCC2)-c2cccc(OC)c2CC1 | > 100 | – | > 100 | –
22 | O=C1c2c(ccc3c2CCC3)CC1Cc1ccc2c(c1)CCC2 (stereo not given) | 94.2 | > 100 | 99.1 | –
23 | CCOC(=O)C(C)Sc1nnc(COc2ccc(Cl)cc2)n1-c1ccccc1 (stereo not given) | 37.5 | 27.4 | 71.2 | TGI [5]: 30.4 µM; TGI [6]: > 100 µM; TGI [7]: 34.9 µM; TGI [8]: 29.9 µM; TGI [9]: 95.2 µM; TGI [10]: 33 µM; TGI [11]: 35.1 µM
24 | CC(=O)N1c2ccccc2C2=NN(C)C(=N)SC21 (stereo not given) | > 100 | > 100 | > 100 | –
25 | COC(=O)CN(CC(O)C(NC(C)=O)C(O)C=O)C(=O)OCc1ccccc1 (stereo not given) | > 100 | > 100 | > 100 | –
26 | CC(C)(C)OC(=O)N1CC(CCl)c2ccc(O)cc21 (stereo not given) | 12.9 | 3.72 | 12.3 | –
27 | O=C(Cc1nc2sc3c(c2c(=O)[nH]1)CCCC3)Nc1ccccc1 | > 100 | > 100 | > 100 | TGI [4]: > 100 µM; TGI [5]: > 100 µM; TGI [6]: > 100 µM; TGI [7]: > 100 µM; TGI [12]: > 100 µM; TGI [8]: > 100 µM; TGI [10]: > 100 µM
28 | COC(=O)c1cc(OS(=O)(=O)C(F)(F)F)c(=O)n2c1CCCC2 | > 100 | > 100 | > 100 | –
29 | O=C1NC(N2CCCC(CO)C2)=N/C1=C\c1ccccc1 (stereo not given) | > 100 | > 100 | > 100 | –
30 | Cn1c2c(c3ccccc31)CCN=C2C1CCCOC1=O (stereo not given) | > 100 | > 100 | > 100 | –
31 | CC(C)(C)c1cc2c(c(C(C)(C)C)c1O)CC(=O)O2 | 92.8 | > 100 | 94.1 | –
32 | O=C(CC(O)(C(F)(F)F)C(F)(F)Cl)CC(O)(C(F)(F)F)C(F)(F)Cl (stereo not given) | 5.85 | 7.34 | > 10 | –
33 | COc1cccc2c1C1(O)C2CCCCCCCCCC12OCCCO2 (stereo not given) | > 100 | > 61.8 | > 100 | TGI [4]: > 100 µM; TGI [5]: > 100 µM; TGI [6]: > 100 µM; TGI [8]: > 100 µM; TGI [9]: > 100 µM; TGI [10]: > 100 µM; TGI [11]: > 100 µM
